Measurements reported in patent publication US20210085623A1, “Formulation” (Medherant Limited, priority 2017, published 2021).

Legend:
[1] = Passive release of ibuprofen from pressure sensitive adhesive patch, diffusion cells; conditions: Nylon membrane, patch without excipients
Source text: Prior to determination of active pharmaceutical ingredient (API) diffusion across skin mimicking membranes, a passive release of ibuprofen from the pressure sensitive adhesive must be verified. […] Such an experiment can be performed using non-rate-limiting membranes, for example porous silicone, Nylon or polytetrafluoroethylene (PTFE). In this study, Nylon was employed as the test model for passive release.
All further mentioned patches contain 10 wt % of API. Unless stated otherwise, 6 sample patches were analysed in parallel. […] Experimental conditions are listed below.
Patch components: Pressure sensitive adhesive, ibuprofen, […]. Patch thickness: 300 μm Membrane type: Nylon, pore size 0.45 μm Apparatus: diffusion cells Acceptor medium: mixture of pH 7.4 PBS/2-(2-ethoxyethoxy) ethanol (90/10 vol.) […]

[2] = Permeation of ibuprofen from patches through Strat-M membranes, diffusion cells; type: in vitro ADME; conditions: Strat-M membrane, patch without excipients
Source text: In order to determine the necessity for further modification of ibuprofen patches with excipients, permeation rates of the API were observed using Strat-M membranes. Strat-M membranes are produced by Merck Millipore as a synthetic transdermal diffusion model to avoid animal or human skin testing. There is a correlation tool on a dedicated website allowing a comparison with human skin. Permeation profiles can vary depending on a drug, but it proves that Strat-M membranes can be employed as a reliable evaluation of any transdermal system in terms of human skin penetration. It must be said that penetration profiles in the case of human skin may differ from the aforementioned membrane, but allows predicting the efficacy of patches with certain reliability.
Patches tested in this study are from the same batch as employed in release experiments and were run under the same conditions. Permeation profiles and release profiles of ibuprofen through Strat-M membranes are depicted in FIGS. 1 and 2, respectively. […]

CC(C)Cc1ccc(C(C)C(=O)O)cc1 (stereo not drawn) [ibuprofen]
Total Released Amount ([1]; 1 h): 227.93 μg cm^−2 | Total Released Amount ([1]; 2 h): 438.23 μg cm^−2 | Total Released Amount ([1]; 4 h): 726.09 μg cm^−2 | Total Released Amount ([1]; 6 h): 967.49 μg cm^−2 | Total Released Amount ([1]; 8 h): 1124.13 μg cm^−2 | Total Released Amount ([1]; 10 h): 1257.46 μg cm^−2 | Total Released Amount ([1]; 12 h): 1397.34 μg cm^−2 | Total Released Amount ([1]; 24 h): 1650.21 μg cm^−2 | Flux ([2]; 1 h): 1.29 μg cm^−2 h^−1 | Total Amount ([2]; 1 h): 1.291 μg cm^−2 | Flux ([2]; 2 h): 2.75 μg cm^−2 h^−1 | Total Amount ([2]; 2 h): 4.044 μg cm^−2 | Flux ([2]; 4 h): 2.71 μg cm^−2 h^−1 | Total Amount ([2]; 4 h): 9.466 μg cm^−2 | Flux ([2]; 6 h): 3.56 μg cm^−2 h^−1 | Total Amount ([2]; 6 h): 16.595 μg cm^−2 | Flux ([2]; 8 h): 3.91 μg cm^−2 h^−1 | Total Amount ([2]; 8 h): 24.424 μg cm^−2 | Flux ([2]; 10 h): 5.82 μg cm^−2 h^−1 | Total Amount ([2]; 10 h): 36.066 μg cm^−2 | Flux ([2]; 12 h): 6.92 μg cm^−2 h^−1 | Total Amount ([2]; 12 h): 49.915 μg cm^−2 | Flux ([2]; 24 h): 4.96 μg cm^−2 h^−1 | Total Amount ([2]; 24 h): 109.467 μg cm^−2
